{"source": "patent US20220017863A1", "about": "“SIRT2-ABLATED CHIMERIC T CELLS” (H. Lee Moffitt Cancer Center and Research Institute, Inc., priority 2019, published 2022)", "key": {"SIRT2": {"target": "T1, SIRT2 (Homo sapiens, UniProt Q8IXJ6)", "T1 sequence (Q8IXJ6 1-389)": "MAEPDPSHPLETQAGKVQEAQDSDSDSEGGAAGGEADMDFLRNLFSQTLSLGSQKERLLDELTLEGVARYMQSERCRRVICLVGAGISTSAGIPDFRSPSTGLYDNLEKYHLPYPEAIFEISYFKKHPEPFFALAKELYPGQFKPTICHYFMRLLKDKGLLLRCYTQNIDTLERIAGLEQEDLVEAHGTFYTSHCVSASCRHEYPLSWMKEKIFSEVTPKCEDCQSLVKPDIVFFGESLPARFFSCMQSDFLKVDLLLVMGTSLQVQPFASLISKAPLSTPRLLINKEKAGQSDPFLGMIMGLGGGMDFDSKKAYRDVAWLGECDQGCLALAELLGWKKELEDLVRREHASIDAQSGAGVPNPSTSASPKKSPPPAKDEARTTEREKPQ", "conditions": "cited from earlier work"}, "SIRT1": {"target": "T2, SIRT1 (Homo sapiens, UniProt Q96EB6)", "T2 sequence (Q96EB6 1-747)": "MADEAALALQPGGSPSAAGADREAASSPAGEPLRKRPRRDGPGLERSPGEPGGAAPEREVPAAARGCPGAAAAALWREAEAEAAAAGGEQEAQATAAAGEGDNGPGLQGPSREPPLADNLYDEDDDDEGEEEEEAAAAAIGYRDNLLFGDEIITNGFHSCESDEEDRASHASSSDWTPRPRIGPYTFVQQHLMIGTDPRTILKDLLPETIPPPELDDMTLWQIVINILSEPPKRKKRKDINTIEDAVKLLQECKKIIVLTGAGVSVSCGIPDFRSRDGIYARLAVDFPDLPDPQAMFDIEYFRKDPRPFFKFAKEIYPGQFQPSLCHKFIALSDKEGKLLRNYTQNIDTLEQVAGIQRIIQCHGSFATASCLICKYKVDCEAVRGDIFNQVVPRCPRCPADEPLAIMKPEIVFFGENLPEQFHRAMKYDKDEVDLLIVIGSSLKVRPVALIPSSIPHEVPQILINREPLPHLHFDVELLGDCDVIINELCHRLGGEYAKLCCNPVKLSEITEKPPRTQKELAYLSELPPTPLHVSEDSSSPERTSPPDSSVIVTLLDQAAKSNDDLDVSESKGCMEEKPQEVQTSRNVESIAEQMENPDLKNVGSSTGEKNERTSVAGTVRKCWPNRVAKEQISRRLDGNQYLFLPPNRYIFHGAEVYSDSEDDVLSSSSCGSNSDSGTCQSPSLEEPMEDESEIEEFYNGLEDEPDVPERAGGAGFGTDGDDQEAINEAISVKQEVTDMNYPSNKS", "conditions": "cited from earlier work"}, "SIRT3": {"target": "T3, SIRT3 (Homo sapiens, UniProt Q9NTG7)", "T3 sequence (Q9NTG7 1-399)": "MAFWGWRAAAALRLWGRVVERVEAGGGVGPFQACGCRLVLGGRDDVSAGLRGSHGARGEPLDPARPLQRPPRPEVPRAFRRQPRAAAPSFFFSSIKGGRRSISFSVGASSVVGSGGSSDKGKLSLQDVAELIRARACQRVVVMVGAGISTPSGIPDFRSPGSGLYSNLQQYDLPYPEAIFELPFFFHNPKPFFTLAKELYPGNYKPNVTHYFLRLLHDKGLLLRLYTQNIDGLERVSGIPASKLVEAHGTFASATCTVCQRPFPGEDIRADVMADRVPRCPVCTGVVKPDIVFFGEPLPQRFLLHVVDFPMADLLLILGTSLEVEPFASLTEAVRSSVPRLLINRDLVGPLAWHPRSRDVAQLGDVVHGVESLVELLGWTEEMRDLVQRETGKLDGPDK", "conditions": "cited from earlier work"}, "Pmel T cells": {"tested_on": "Pmel T cells", "experiment": "IFN-γ ELISPOT on gp100-stimulated Pmel T cells", "format": "cell-based, mouse", "conditions": "gp100-stimulated Sirt2KO (Sirt2−/−) Pmel T cells", "experimental": "Spleens and/or Lymph nodes (LN) were collected from WT, Sirt2KO, Pmel/WT, Pmel/Sirt2KO mice and processed into single-cell suspensions. CD3^+, CD4^+ and CD8^+ T cells were negatively enriched using Mouse Pan T cell, CD4^+ T cell and CD8^+ T cell isolation Kits™ respectively according to the manufacturers' instructions. The purity of the isolated cells was confirmed by flow cytometry (>95%). Purified T cells were cultured in completed RPMI 1640 medium (ThermoFisher Scientific) supplemented with 10% (vol/vol) Fetal bovine serum (FBS, Biowest) and 1% (vol/vol) penicillin/streptomycin (P/S, Thomas Scientific Inc). […]\n(§1) The number of IFN-γ producing cells was evaluated in an ELISPOT assay. […] After washing steps and biotinylated anti-IFN-γ antibody (R4-6A2, ThermoFisher Scientific)+Streptavidin-HRP (BD Bioscience) labeling, spots were detected using AEC Substrate Kit (BD Biosciences) and counted using an AID ELISPOT Reader System (Autoimmun Diagnostika GmbH). […]\n(§2) The number of IFN-γ producing cells was evaluated in an ELISPOT assay. […] After washing steps and successive biotinylated anti-IFN-γ antibody (R4-6A2, Mabtech, Inc.) and Streptavidin-HRP (BD Bioscience) labeling, spots were detected using AEC Substrate Kit (BD Biosciences) and counted using an AID ELISPOT Reader System (Autoimmun Diagnostika GmbH)."}, "[1]": {"tested_on": "Pmel CD8+ T cells co-cultured with B16F10 target cells", "experiment": "LDH release cytotoxicity assay of Pmel CD8+ T cells on B16F10 targets", "format": "cell-based, mouse", "conditions": "gp100-stimulated Sirt2KO (Sirt2−/−) Pmel T cells on B16F10 targets, 10 mM 2-DG", "experimental": "Evaluation of functional cytotoxic activity was performed using Pierce™ LDH Cytotoxicity Assay Kit (ThermoFisher Scientific) according to the manufacturer's protocol. B16F10 cells were used as targets. Mouse CD3^+ TILs isolated from subcutaneous B16F10 tumor nodules and CD8^+ enriched T cells from gp100-stimulated Pmel splenocytes were used as effector cells. Briefly, target B16F10 tumor cells were co-cultured with effector cells in 96-well round-bottom microplates at the indicated effector:target ratios. After 6 hours, the percentage of specific LDH release was calculated according to the following formula: % cell lysis=(experimental value effector cells spontaneous release target cells spontaneous release)×100/(target cells maximum release target cells spontaneous release), where “experimental” corresponds to the experimental signal value, “effector spontaneous” to spontaneous release of LDH from effector cells alone, “target spontaneous” to spontaneous release of LDH from target cells alone and “maximum release” to the maximum release of LDH from target cells in medium containing 1% Triton X-100.\nEvaluation of functional cytotoxic activity was performed using Pierce™ LDH Cytotoxicity Assay Kit (Thermo Fisher Scientific) according to the manufacturer's protocol. […]"}, "[2]": {"tested_on": "CD3+ TILs from B16F10 tumor nodules", "experiment": "IFN-γ ELISPOT on mouse CD3+ TILs re-challenged with irradiated B16F10 cells", "format": "cell-based", "conditions": "CD3+ TILs from subcutaneous B16F10 nodules of Sirt2KO versus WT mice", "experimental": "Lymphocytes from subcutaneous tumors were isolated by dicing the tissues and enzymatic digestion in PBS containing collagenase type 4 (2 mg/ml, Worthington Biochemical) and DNase I (0.25 mg/ml, Sigma) for 45 min with occasional shaking at 37° C. Cell suspensions were then twice filtered through 100 μm and 40 μm cell strainers (ThermoFisher Scientific) to single-cell suspension followed by PBS wash and red blood cell lysis using RBC Lysis Buffer (Biolegend). TILs were finally isolated by density gradient centrifugation using Percoll (GE Healthcare) and further purified using CD3c MicroBeads Kit™ (Miltenyi Biotec) according to the manufacturer's instructions. […]\nas §1, §2"}}, "data": [{"compound": "CCOC(=O)c1ccc(NC(=O)c2ccc3c(c2)C2C4CCC(C4)C2C(c2ccccc2)N3)cc1", "note": "(stereo not drawn) [AEM2]", "values": [{"measurement": "IC50", "setting": "SIRT2", "value": 3.8, "unit": "µM"}]}, {"compound": "O=C(Nc1cccc([N+](=O)[O-])c1)c1cccc(S(=O)(=O)N2CCCCCC2)c1", "note": "[AK-1]", "values": [{"measurement": "IC50", "setting": "SIRT1", "value": "> 50", "unit": "µM"}, {"measurement": "IC50", "setting": "SIRT3", "value": "> 50", "unit": "µM"}]}, {"compound": "O=CC[C@@H](O)[C@H](O)[C@H](O)CO", "note": "[2-DG, 2-deoxyglucose]", "values": [{"measurement": "IFN-γ release", "setting": "Pmel T cells", "value": "profoundly suppressed"}, {"measurement": "cytotoxicity", "setting": "[1]", "value": "profoundly suppressed"}, {"measurement": "IFN-γ release", "setting": "[2]", "value": "suppressed"}]}]}
